Drawing on patent US12723063B2, “GIPR-agonist compounds” (Eli Lilly and Company, priority 2019, dated 2026), this text covers EC50 for six compounds.

As usually defined, the EC50 is the concentration giving half of the maximal effect.

The structures appear in SMILES notation. *1 amine or outer side, *2 acyl side, *3 side chain or, on linkers, in order; H or OH if unused. Where a SMILES comes first, the peptide text is derived from it. Side-chain parts run from the residue outwards. [ ]: non-standard residue; d: D form. The star is where a group is joined. C20 diacid = O=C(O)CCCCCCCCCCCCCCCCCCC(=O)*; C18 diacid = O=C(O)CCCCCCCCCCCCCCCCC(=O)*; αMePhe(2-F) = C[C@](N)(Cc1ccccc1F)C(=O)O; γGlu = O=C(O)[C@H](CCC(=O)[*:2])N[*:1]; αMeF = C[C@](N)(Cc1ccccc1)C(=O)O; αMeL = CC(C)C[C@](C)(N)C(=O)O; Orn = NCCC[C@H](N)C(=O)O; AEEA = NCCOCCOCC(=O)O; Aib = CC(C)(N)C(=O)O Bounds are passed on as bounds.

What all share (assay): cAMP functional assay (HTRF) in HEK293 cells in presence of 0.1% casein
Common to all, as to format: cell-based
In general terms: TR-FRET usually uses a lanthanide donor and a delayed reading to cut background.

Experiment [1] has as its target T1, human glucose-dependent insulinotropic peptide receptor (GIPR) (Homo sapiens, UniProt P48546).
T1 construct: expressed in transfected cells; host or cells: HEK293
T1 sequence (P48546 22-466): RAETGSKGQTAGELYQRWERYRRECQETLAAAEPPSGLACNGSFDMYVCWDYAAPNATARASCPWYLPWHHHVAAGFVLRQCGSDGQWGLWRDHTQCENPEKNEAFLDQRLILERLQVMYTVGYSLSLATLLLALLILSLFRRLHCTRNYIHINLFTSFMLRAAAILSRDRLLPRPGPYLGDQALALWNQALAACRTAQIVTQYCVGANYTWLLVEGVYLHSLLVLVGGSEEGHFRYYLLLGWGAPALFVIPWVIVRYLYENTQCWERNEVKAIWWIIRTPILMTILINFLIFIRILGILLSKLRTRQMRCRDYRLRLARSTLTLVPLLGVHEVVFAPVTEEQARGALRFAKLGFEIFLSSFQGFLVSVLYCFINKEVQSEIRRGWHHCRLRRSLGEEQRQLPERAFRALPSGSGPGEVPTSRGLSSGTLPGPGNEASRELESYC
Particulars: HEK293 cells expressing human GIPR, geometric mean, read-out: hGIPR cAMP Rel EC50 nM (SEM, n).

Experiment [2] deals with T2, human glucagon receptor (GcgR) (Homo sapiens, UniProt P47871).
T2 construct: expressed in transfected cells; host or cells: HEK293
T2 sequence (P47871 26-477): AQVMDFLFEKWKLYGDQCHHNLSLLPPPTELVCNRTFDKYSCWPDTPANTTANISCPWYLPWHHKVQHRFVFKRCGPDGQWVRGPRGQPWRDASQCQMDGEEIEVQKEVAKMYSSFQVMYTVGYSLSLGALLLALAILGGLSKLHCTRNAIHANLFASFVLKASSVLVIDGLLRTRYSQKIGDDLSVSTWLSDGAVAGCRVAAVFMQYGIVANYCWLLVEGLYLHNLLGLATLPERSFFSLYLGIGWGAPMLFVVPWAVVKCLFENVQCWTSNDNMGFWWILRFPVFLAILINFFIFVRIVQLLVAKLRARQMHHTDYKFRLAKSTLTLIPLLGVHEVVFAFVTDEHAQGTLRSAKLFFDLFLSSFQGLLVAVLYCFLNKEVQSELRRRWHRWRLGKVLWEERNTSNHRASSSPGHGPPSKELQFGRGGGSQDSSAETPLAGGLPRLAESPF
The settings on record: HEK293 cells expressing human GcgR, geometric mean, read-out: hGcgR cAMP Rel EC50 nM (SEM, n).

Experiment [3] concerns the target T3, human GLP-1 receptor (GLP-1R) (Homo sapiens, UniProt P43220).
T3 construct: expressed in transfected cells; host or cells: HEK293
The settings on record: HEK293 cells expressing human GLP-1R, geometric mean, read-out: hGLP1R cAMP Rel EC50 nM (SEM, n).

T3 sequence (P43220 24-463): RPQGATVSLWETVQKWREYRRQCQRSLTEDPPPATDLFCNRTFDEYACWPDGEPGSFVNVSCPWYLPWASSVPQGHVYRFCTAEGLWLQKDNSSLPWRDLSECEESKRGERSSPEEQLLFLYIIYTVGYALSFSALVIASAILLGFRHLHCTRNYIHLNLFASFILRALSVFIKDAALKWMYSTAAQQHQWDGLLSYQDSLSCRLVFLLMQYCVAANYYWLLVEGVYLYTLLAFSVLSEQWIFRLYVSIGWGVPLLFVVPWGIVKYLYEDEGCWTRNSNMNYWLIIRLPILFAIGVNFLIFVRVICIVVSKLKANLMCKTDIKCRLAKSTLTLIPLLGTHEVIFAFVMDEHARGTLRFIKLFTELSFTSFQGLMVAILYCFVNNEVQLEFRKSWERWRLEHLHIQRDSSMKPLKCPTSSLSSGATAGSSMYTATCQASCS

For the compound `CC[C@H](C)[C@H](NC(=O)[C@H](CO)NC(=O)[C@H](Cc1ccc(O)cc1)NC(=O)[C@H](CC(=O)O)NC(=O)[C@H](CO)NC(=O)[C@@H](NC(=O)[C@H](Cc1ccccc1)NC(=O)[C@@H](NC(=O)CNC(=O)[C@H](CCC(=O)O)NC(=O)[C@@H](C)NC(=O)[C@@H](N)Cc1ccc(O)cc1)[C@@H](C)O)[C@@H](C)CC)C(=O)N[C@@H](CC(C)C)C(=O)N[C@@H](CC(C)C)C(=O)N[C@@H](CC(=O)O)C(=O)N[C@@H](CCCCN)C(=O)N[C@@H](CCCCNC(=O)COCCOCCNC(=O)COCCOCCNC(=O)CC[C@H](NC(=O)CCCCCCCCCCCCCCCCCCC(=O)O)C(=O)O)C(=O)N[C@@H](Cc1c[nH]cn1)C(=O)N[C@@H](CCC(N)=O)C(=O)N[C@@H](CCC(N)=O)C(=O)N[C@@H](CCC(=O)O)C(=O)N[C@@H](Cc1ccccc1)C(=O)N[C@H](C(=O)N[C@@H](CC(N)=O)C(=O)N[C@@H](Cc1c[nH]c2ccccc12)C(=O)N[C@@H](CC(C)C)C(=O)N[C@@H](CC(C)C)C(=O)N[C@@H](C)C(=O)N[C@@H](CCC(N)=O)C(=O)NCC(=O)N1CCC[C@H]1C(=O)N[C@@H](CO)C(=O)N[C@@H](CO)C(=O)NCC(=O)N[C@@H](C)C(=O)N1CCC[C@H]1C(=O)N1CCC[C@H]1C(=O)N1CCC[C@H]1C(=O)N[C@@H](CO)C(N)=O)C(C)C` [Example 13] (H-Y[dA]EGTFISDYSILLDKK([AEEA-AEEA-γGlu-C20 diacid])HQQEFVNWLLAQGPSSGAPPPS-NH2), the EC50 is 0.129 nM in experiment [1], > 5000 nM in experiment [2] and > 100 nM in experiment [3].

In the case of `CC[C@H](C)[C@H](NC(=O)[C@H](CO)NC(=O)[C@H](Cc1ccc(O)cc1)NC(=O)[C@H](CC(=O)O)NC(=O)[C@H](CO)NC(=O)[C@@H](NC(=O)[C@](C)(Cc1ccccc1)NC(=O)[C@@H](NC(=O)CNC(=O)[C@H](CCC(=O)O)NC(=O)C(C)(C)NC(=O)[C@@H](N)Cc1ccc(O)cc1)[C@@H](C)O)[C@@H](C)CC)C(=O)N[C@@H](C)C(=O)N[C@@H](CC(C)C)C(=O)N[C@@H](CC(=O)O)C(=O)N[C@@H](CCCCN)C(=O)N[C@H](C(=O)N[C@@H](Cc1c[nH]cn1)C(=O)N[C@@H](CCC(N)=O)C(=O)NC(C)(C)C(=O)N[C@@H](CCC(=O)O)C(=O)N[C@@H](Cc1ccccc1)C(=O)N[C@H](C(=O)N[C@@H](CC(N)=O)C(=O)N[C@@H](Cc1ccc(O)cc1)C(=O)N[C@@H](CCCCNC(=O)COCCOCCNC(=O)COCCOCCNC(=O)CC[C@H](NC(=O)CCCCCCCCCCCCCCCCCCC(=O)O)C(=O)O)C(=O)N[C@@H](CC(C)C)C(=O)N[C@@H](C)C(=O)NCC(=O)NCC(=O)N1CCC[C@H]1C(=O)N[C@@H](CO)C(=O)N[C@@H](CO)C(=O)NCC(=O)N[C@@H](C)C(=O)N1CCC[C@H]1C(=O)N1CCC[C@H]1C(=O)N1CCC[C@H]1C(=O)N[C@@H](CO)C(N)=O)C(C)C)[C@@H](C)CC` [Example 97] (H-Y[Aib]EGT[αMeF]ISDYSIALDKIHQ[Aib]EFVNYK([AEEA-AEEA-γGlu-C20 diacid])LAGGPSSGAPPPS-NH2), the EC50 was 0.009 nM in experiment [1], > 5000 nM in experiment [2] and 2510 nM in experiment [3].

For the compound `CC[C@H](C)[C@H](NC(=O)[C@H](Cc1ccccc1)NC(=O)[C@@H](NC(=O)CNC(=O)[C@H](CCC(=O)O)NC(=O)C(C)(C)NC(=O)[C@@H](N)Cc1ccc(O)cc1)[C@@H](C)O)C(=O)N[C@@H](CO)C(=O)N[C@@H](CC(=O)O)C(=O)N[C@@H](Cc1ccc(O)cc1)C(=O)N[C@@H](CO)C(=O)N[C@H](C(=O)N[C@@](C)(CC(C)C)C(=O)N[C@@H](CC(C)C)C(=O)N[C@@H](CC(=O)O)C(=O)N[C@@H](CCC(=O)O)C(=O)N[C@@H](CCCCNC(=O)COCCOCCNC(=O)COCCOCCNC(=O)CC[C@H](NC(=O)CCCCCCCCCCCCCCCCCCC(=O)O)C(=O)O)C(=O)N[C@@H](Cc1c[nH]cn1)C(=O)N[C@@H](CCC(N)=O)C(=O)NC(C)(C)C(=O)N[C@@H](CC(=O)O)C(=O)N[C@@H](Cc1ccccc1)C(=O)N[C@H](C(=O)N[C@@H](CCC(=O)O)C(=O)N[C@@H](Cc1ccncc1)C(=O)N[C@@H](CC(C)C)C(=O)N[C@@H](CC(C)C)C(=O)N[C@@H](C)C(=O)NCC(=O)NCC(=O)N1CCC[C@H]1C(=O)N[C@@H](CO)C(=O)N[C@@H](CO)C(=O)NCC(=O)N[C@@H](C)C(=O)N1CCC[C@H]1C(=O)N1CCC[C@H]1C(=O)N1CCC[C@H]1C(=O)N[C@@H](CO)C(N)=O)C(C)C)[C@@H](C)CC` [Example 86], the EC50 in experiment [1] was 0.03 nM; in experiment [2] it was > 5000 nM; in experiment [3], > 5000 nM.

`CC[C@H](C)[C@H](NC(=O)[C@H](CCCN)NC(=O)[C@H](CC(=O)O)NC(=O)[C@H](CC(C)C)NC(=O)[C@](C)(CC(C)C)NC(=O)[C@@H](NC(=O)[C@H](CO)NC(=O)[C@H](Cc1ccc(O)cc1)NC(=O)[C@H](CC(=O)O)NC(=O)[C@H](CO)NC(=O)[C@@H](NC(=O)[C@H](Cc1ccccc1)NC(=O)[C@@H](NC(=O)CNC(=O)[C@H](CCC(=O)O)NC(=O)C(C)(C)NC(=O)[C@@H](N)Cc1ccc(O)cc1)[C@@H](C)O)[C@@H](C)CC)[C@@H](C)CC)C(=O)N[C@@H](Cc1c[nH]cn1)C(=O)N[C@@H](CCC(N)=O)C(=O)NC(C)(C)C(=O)N[C@@H](CCC(=O)O)C(=O)N[C@@H](Cc1ccccc1)C(=O)N[C@H](C(=O)N[C@@H](CCC(=O)O)C(=O)N[C@@H](Cc1ccc(O)cc1)C(=O)N[C@@H](CCCCNC(=O)COCCOCCNC(=O)COCCOCCNC(=O)CC[C@H](NC(=O)CCCCCCCCCCCCCCCCCCC(=O)O)C(=O)O)C(=O)N[C@@H](CC(C)C)C(=O)N[C@@H](CCC(=O)O)C(=O)N[C@@H](C)C(=O)NCC(=O)N1CCC[C@H]1C(=O)N[C@@H](CO)C(=O)N[C@@H](CO)C(=O)NCC(=O)N[C@@H](C)C(=O)N1CCC[C@H]1C(=O)N1CCC[C@H]1C(=O)N1CCC[C@H]1C(=O)N[C@@H](CO)C(N)=O)C(C)C` [Example 104] (H-Y[Aib]EGTFISDYSI[αMeL]LD[Orn]IHQ[Aib]EFVEYK([AEEA-AEEA-γGlu-C20 diacid])LEAGPSSGAPPPS-NH2): the EC50 in experiment [1] was 0.0165 nM; in experiment [2], > 5000 nM; in experiment [3], > 5000 nM.

With `CC[C@H](C)[C@H](NC(=O)[C@H](CO)NC(=O)[C@H](Cc1ccc(O)cc1)NC(=O)[C@H](CC(=O)O)NC(=O)[C@H](CO)NC(=O)[C@@H](NC(=O)[C@](C)(Cc1ccccc1F)NC(=O)[C@@H](NC(=O)CNC(=O)[C@H](CCC(=O)O)NC(=O)[C@H](C)NC(=O)[C@@H](Cc1ccc(O)cc1)NC(C)=O)[C@@H](C)O)[C@@H](C)CC)C(=O)N[C@@H](C)C(=O)N[C@@H](CC(C)C)C(=O)N[C@@H](CC(=O)O)C(=O)N[C@@H](CCCCN)C(=O)N[C@@H](CCCCNC(=O)COCCOCCNC(=O)COCCOCCNC(=O)CC[C@H](NC(=O)CCCCCCCCCCCCCCCCC(=O)O)C(=O)O)C(=O)N[C@@H](Cc1c[nH]cn1)C(=O)N[C@@H](CCC(N)=O)C(=O)NC(C)(C)C(=O)N[C@@H](CCC(=O)O)C(=O)N[C@@H](Cc1ccccc1)C(=O)N[C@H](C(=O)N[C@@H](CC(N)=O)C(=O)N[C@@H](Cc1ccc(O)cc1)C(=O)N[C@@H](CC(C)C)C(=O)N[C@@H](CC(C)C)C(=O)N[C@@H](C)C(=O)NCC(=O)NCC(=O)N1CCC[C@H]1C(=O)N[C@@H](CO)C(=O)N[C@@H](CO)C(=O)NCC(=O)N[C@@H](C)C(=O)N1CCC[C@H]1C(=O)N1CCC[C@H]1C(=O)N1CCC[C@H]1C(=O)N[C@@H](CO)C(N)=O)C(C)C` [Example 30] (Ac-[dY]AEGT[αMePhe(2-F)]ISDYSIALDKK([AEEA-AEEA-γGlu-C18 diacid])HQ[Aib]EFVNYLLAGGPSSGAPPPS-NH2), the EC50 is 0.00572 nM in experiment [1], > 5000 nM in experiment [2] and > 5000 nM in experiment [3].

Regarding `CC[C@H](C)[C@H](NC(=O)[C@H](CCCN)NC(=O)[C@H](CC(=O)O)NC(=O)[C@H](CC(C)C)NC(=O)[C@](C)(CC(C)C)NC(=O)[C@@H](NC(=O)[C@H](CO)NC(=O)[C@H](Cc1ccc(O)cc1)NC(=O)[C@H](CC(=O)O)NC(=O)[C@H](CO)NC(=O)[C@@H](NC(=O)[C@H](Cc1ccccc1)NC(=O)[C@@H](NC(=O)CNC(=O)[C@H](CCC(=O)O)NC(=O)C(C)(C)NC(=O)[C@@H](N)Cc1ccc(O)cc1)[C@@H](C)O)[C@@H](C)CC)[C@@H](C)CC)C(=O)N[C@@H](Cc1c[nH]cn1)C(=O)N[C@@H](CCC(N)=O)C(=O)NC(C)(C)C(=O)N[C@@H](CCC(=O)O)C(=O)N[C@@H](Cc1ccccc1)C(=O)N[C@H](C(=O)N[C@H](CCC(=O)O)C(=O)N[C@@H](Cc1ccc(O)cc1)C(=O)N[C@@H](CCCCNC(=O)COCCOCCNC(=O)COCCOCCNC(=O)CC[C@H](NC(=O)CCCCCCCCCCCCCCCCCCC(=O)O)C(=O)O)C(=O)N[C@@H](CC(C)C)C(=O)N[C@@H](CCC(=O)O)C(=O)NCC(=O)NCC(=O)N1CCC[C@H]1C(=O)N[C@@H](CO)C(=O)N[C@@H](CO)C(=O)NCC(=O)N[C@@H](C)C(=O)N1CCC[C@H]1C(=O)N1CCC[C@H]1C(=O)N1CCC[C@H]1C(=O)N[C@@H](CO)C(N)=O)C(C)C` [Example 102] (H-Y[Aib]EGTFISDYSI[αMeL]LD[Orn]IHQ[Aib]EFV[dE]YK([AEEA-AEEA-γGlu-C20 diacid])LEGGPSSGAPPPS-NH2), the EC50 was 0.0166 nM in experiment [1], > 5000 nM in experiment [2] and > 5000 nM in experiment [3].
